Laboratory results from PubChem BioAssay (NCI).
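Following 48 hours of exposure in 96-well plates, responses at five concentrations were used to interpolate endpoints linearly. GI50 is the concentration that inhibits growth by half. TGI: concentration producing complete growth inhibition.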

What was measured:
Assay in all cases: NCI anticancer screen, dose series, 48 h
786-0 renal = system: 786-0 renal
A549 NSCLC = system: A549 NSCLC
ACHN renal = system: ACHN renal
BT-549 breast = system: BT-549 breast
CAKI-1 renal = system: CAKI-1 renal
CCRF-CEM leukemia = system: CCRF-CEM leukemia
COLO 205 colon = system: COLO 205 colon
DU-145 prostate = system: DU-145 prostate
EKVX NSCLC = system: EKVX NSCLC
HCC-2998 colon = system: HCC-2998 colon
HCT-116 colon = system: HCT-116 colon
HCT-15 colon = system: HCT-15 colon
HL-60(TB) leukemia = system: HL-60(TB) leukemia
HOP-62 NSCLC = system: HOP-62 NSCLC
HT29 colon = system: HT29 colon
IGROV1 ovarian = system: IGROV1 ovarian
K-562 leukemia = system: K-562 leukemia
KM12 colon = system: KM12 colon
LOX IMVI melanoma = system: LOX IMVI melanoma
M14 melanoma = system: M14 melanoma
MALME-3M melanoma = system: MALME-3M melanoma
MCF7 breast = system: MCF7 breast
MDA-MB-231 breast = system: MDA-MB-231 breast
MDA-MB-435 = system: MDA-MB-435
MOLT-4 leukemia = system: MOLT-4 leukemia
NCI-H226 lung = system: NCI-H226 lung
NCI-H23 lung = system: NCI-H23 lung
NCI-H460 lung = system: NCI-H460 lung
NCI-H522 lung = system: NCI-H522 lung
NCI/ADR-RES ovarian = system: NCI/ADR-RES ovarian
OVCAR-3 ovarian = system: OVCAR-3 ovarian
OVCAR-4 ovarian = system: OVCAR-4 ovarian
OVCAR-5 ovarian = system: OVCAR-5 ovarian
OVCAR-8 ovarian = system: OVCAR-8 ovarian
PC-3 prostate = system: PC-3 prostate
RPMI-8226 leukemia = system: RPMI-8226 leukemia
SF-268 CNS = system: SF-268 CNS
SF-295 CNS = system: SF-295 CNS
SF-539 CNS = system: SF-539 CNS
SK-MEL-2 melanoma = system: SK-MEL-2 melanoma
SK-MEL-5 melanoma = system: SK-MEL-5 melanoma
SK-OV-3 ovarian = system: SK-OV-3 ovarian
SN12C renal = system: SN12C renal
SNB-19 CNS = system: SNB-19 CNS
SNB-75 CNS = system: SNB-75 CNS
SR leukemia = system: SR leukemia
T-47D breast = system: T-47D breast
TK-10 renal = system: TK-10 renal
U251 CNS = system: U251 CNS
UACC-257 melanoma = system: UACC-257 melanoma
UACC-62 melanoma = system: UACC-62 melanoma
UO-31 renal = system: UO-31 renal

For `COc1cc(C(=O)/C=C/c2c(-c3cccs3)nc3sccn23)cc(OC)c1OC`, the GI50 (786-0 renal) was 1530 nM, the TGI (786-0 renal) was 5940 nM and the GI50 (A549 NSCLC) was 1580 nM. The TGI (A549 NSCLC) was 5300 nM, the GI50 (ACHN renal) was 2160 nM and the TGI (ACHN renal) was 7520 nM. For the same compound, the GI50 (BT-549 breast) was 1790 nM, the TGI (BT-549 breast) was 11400 nM and the GI50 (CAKI-1 renal) was 1790 nM. The TGI (CAKI-1 renal) was 17000 nM, the GI50 (CCRF-CEM leukemia) was 565 nM and the TGI (CCRF-CEM leukemia) was > 100000 nM. For the same compound, the GI50 (COLO 205 colon) was 1650 nM, the TGI (COLO 205 colon) was 3320 nM and the GI50 (DU-145 prostate) was 518 nM. For the same compound, the TGI (DU-145 prostate) was 1890 nM, the GI50 (EKVX NSCLC) was 2410 nM and the TGI (EKVX NSCLC) was > 100000 nM. The GI50 (HCC-2998 colon) was 814 nM, the TGI (HCC-2998 colon) was 2000 nM and the GI50 (HCT-116 colon) was 1090 nM. It also gave a TGI (HCT-116 colon) of 3990 nM, a GI50 (HCT-15 colon) of 839 nM and a TGI (HCT-15 colon) of 3850 nM. It also gave a GI50 (HL-60(TB) leukemia) of 1190 nM, a TGI (HL-60(TB) leukemia) of 4460 nM and a GI50 (HOP-62 NSCLC) of 2410 nM. It also gave a TGI (HOP-62 NSCLC) of 6440 nM, a GI50 (HT29 colon) of 1120 nM and a TGI (HT29 colon) of 3960 nM. It also gave a GI50 (IGROV1 ovarian) of 462 nM, a TGI (IGROV1 ovarian) of 1370 nM and a GI50 (K-562 leukemia) of 445 nM. The TGI (K-562 leukemia) was > 100000 nM, the GI50 (KM12 colon) was 342 nM and the TGI (KM12 colon) was 1090 nM. It also gave a GI50 (LOX IMVI melanoma) of 1060 nM, a TGI (LOX IMVI melanoma) of 2500 nM and a GI50 (M14 melanoma) of 2510 nM. The TGI (M14 melanoma) was 27200 nM, the GI50 (MALME-3M melanoma) was 3280 nM and the TGI (MALME-3M melanoma) was 43400 nM. The GI50 (MCF7 breast) was 724 nM, the TGI (MCF7 breast) was 88400 nM and the GI50 (MDA-MB-231 breast) was 1550 nM. For the same compound, the TGI (MDA-MB-231 breast) was 9270 nM, the GI50 (MDA-MB-435) was 592 nM and the TGI (MDA-MB-435) was 60100 nM. It also gave a GI50 (MOLT-4 leukemia) of 1020 nM, a TGI (MOLT-4 leukemia) of 4450 nM and a GI50 (NCI-H226 lung) of 2460 nM. The TGI (NCI-H226 lung) was 7460 nM, the GI50 (NCI-H23 lung) was 814 nM and the TGI (NCI-H23 lung) was 6420 nM. The GI50 (NCI-H460 lung) was 600 nM, the TGI (NCI-H460 lung) was 1990 nM and the GI50 (NCI-H522 lung) was 260 nM. For the same compound, the TGI (NCI-H522 lung) was 866 nM, the GI50 (NCI/ADR-RES ovarian) was 464 nM and the TGI (NCI/ADR-RES ovarian) was 4060 nM. It also gave a GI50 (OVCAR-3 ovarian) of 1010 nM, a TGI (OVCAR-3 ovarian) of 2730 nM and a GI50 (OVCAR-4 ovarian) of 1970 nM. It also gave a TGI (OVCAR-4 ovarian) of 53200 nM, a GI50 (OVCAR-5 ovarian) of 4740 nM and a TGI (OVCAR-5 ovarian) of 27800 nM. It also gave a GI50 (OVCAR-8 ovarian) of 651 nM, a TGI (OVCAR-8 ovarian) of 3700 nM and a GI50 (PC-3 prostate) of 731 nM. The TGI (PC-3 prostate) was 6170 nM, the GI50 (RPMI-8226 leukemia) was 448 nM and the TGI (RPMI-8226 leukemia) was 3680 nM. For the same compound, the GI50 (SF-268 CNS) was 1320 nM, the TGI (SF-268 CNS) was 6300 nM and the GI50 (SF-295 CNS) was 955 nM. It also gave a TGI (SF-295 CNS) of 9940 nM, a GI50 (SF-539 CNS) of 1740 nM and a TGI (SF-539 CNS) of 4260 nM. For the same compound, the GI50 (SK-MEL-2 melanoma) was 319 nM, the TGI (SK-MEL-2 melanoma) was 1280 nM and the GI50 (SK-MEL-5 melanoma) was 1060 nM. For the same compound, the TGI (SK-MEL-5 melanoma) was 2490 nM, the GI50 (SK-OV-3 ovarian) was 2150 nM and the TGI (SK-OV-3 ovarian) was 6150 nM. The GI50 (SN12C renal) was 1920 nM, the TGI (SN12C renal) was 10800 nM and the GI50 (SNB-19 CNS) was 2140 nM. The TGI (SNB-19 CNS) was 13500 nM, the GI50 (SNB-75 CNS) was 1280 nM and the TGI (SNB-75 CNS) was 8160 nM. It also gave a GI50 (SR leukemia) of 264 nM, a TGI (SR leukemia) of 2470 nM and a GI50 (T-47D breast) of 789 nM. The TGI (T-47D breast) was 4710 nM, the GI50 (TK-10 renal) was 2080 nM and the TGI (TK-10 renal) was > 100000 nM. It also gave a GI50 (U251 CNS) of 904 nM, a TGI (U251 CNS) of 5340 nM and a GI50 (UACC-257 melanoma) of 1140 nM. The TGI (UACC-257 melanoma) was 3710 nM, the GI50 (UACC-62 melanoma) was 1380 nM and the TGI (UACC-62 melanoma) was 3720 nM. It also gave a GI50 (UO-31 renal) of 784 nM and a TGI (UO-31 renal) of 4700 nM.
